# Test results as given in patent publication US20100119483A1, “PEPTIDE VIRAL ENTRY INHIBITORS” (Schering Corporation, priority 2004, published 2010).
# Values joined by “and” are separate entries in the source; they are usually repeats but may differ in a detail not shown here. Equal entries are not always repeated.
# System: HCV pseudoparticles
# Experiment: HCV pseudoparticle (HCVpp) entry assay in Huh7 hepatoma cells, luciferase readout
# Format: cell-based, hepatitis C virus
# Settings: for % of control at ~30 uM: percentage of hepatitis C virus cellular entry at 30 μM peptide vs uninhibited control; for HCVpp % inh: truncated peptides tested at 50 uM in 1% DMSO
# How it was run: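 Pseudoparticles carrying HCV E1/E2 on an HIV luciferase backbone were produced in 293T cells; peptide was pre-incubated 1 h at 37 °C with Huh7 cells, then virus added and luciferase read after 72 h. Dose-response used 10-point 3-fold titration from 100 ug/ml; envelope-less particles controlled non-specific entry.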
# [1] = 0.3 nM of peptide, two values per peptide
# [2] = 1 nM of peptide, two values per peptide
# [3] = 3 nM of peptide, two values per peptide
# [4] = 10 nM of peptide, two values per peptide
# [5] = 30 nM of peptide, two values per peptide
# [6] = 100 nM of peptide, two values per peptide
# [7] = 300 nM of peptide, two values per peptide
# [8] = 0.1 nM of peptide (printed for three rows), two values per peptide and row
substance,measurement,setting,value
A-I-P-W-E-Y-V-L-L-L-F-L-L (AIPWEYVLLLFLL; HCV peptide) [SEQ ID NO: 117],"% control (HCVpp entry), proline scanning",[1],66 % control and 117 % control
same,"% control (HCVpp entry), proline scanning",[2],68 % control and 87 % control
same,"% control (HCVpp entry), proline scanning",[3],89 % control and 66 % control
same,"% control (HCVpp entry), proline scanning",[4],75 % control
same,"% control (HCVpp entry), proline scanning",[5],58 % control and 71 % control
same,"% control (HCVpp entry), proline scanning",[6],38 % control and 54 % control
same,"% control (HCVpp entry), proline scanning",[7],48 % control and 41 % control
same,"% control (HCVpp entry), proline scanning","10000 nM of peptide, two values per peptide",54 % control and 31 % control
A-K-K-W-E-Y-V-L-L-L-E-L-L [SEQ ID NO: 102],"% control (HCVpp entry), lysine scanning",[8],104 % control and 102 % control and 89 % control and 108 % control and 98 % control and 106 % control
same,"% control (HCVpp entry), lysine scanning",[1],141 % control and 107 % control
same,"% control (HCVpp entry), lysine scanning",[2],96 % control and 83 % control
same,"% control (HCVpp entry), lysine scanning",[3],70 % control and 66 % control
same,"% control (HCVpp entry), lysine scanning",[4],67 % control and 62 % control
same,"% control (HCVpp entry), lysine scanning",[5],33 % control and 41 % control
same,"% control (HCVpp entry), lysine scanning",[6],16 % control and 25 % control
same,"% control (HCVpp entry), lysine scanning",[7],29 % control and 23 % control
same,% of control at ~30 uM,,5%
F-A-I-K-W-E-Y-V-L-L-L-F-L-L [SEQ ID NO: 105],HCVpp % inh,,95%
G-I-K-W-E-Y-V-L-L-L-F-L-L [SEQ ID NO: 82],"% control (HCVpp entry), glycine scanning","0.00003 uM of peptide, two values per peptide and row",74 % control and 88 % control and 118 % control and 120 % control
same,"% control (HCVpp entry), glycine scanning","0.0001 uM of peptide, two values per peptide",62 % control and 61 % control
same,"% control (HCVpp entry), glycine scanning","0.0003 uM of peptide, two values per peptide",68 % control and 71 % control
same,"% control (HCVpp entry), glycine scanning","0.001 uM of peptide, two values per peptide",90 % control and 66 % control
same,"% control (HCVpp entry), glycine scanning","0.003 uM of peptide, two values per peptide",71 % control and 80 % control
same,"% control (HCVpp entry), glycine scanning","0.01 uM of peptide, two values per peptide",53 % control and 43 % control
same,"% control (HCVpp entry), glycine scanning","0.03 uM of peptide, two values per peptide",46 % control and 41 % control
same,"% control (HCVpp entry), glycine scanning","0.1 uM of peptide, two values per peptide",33 % control and 27 % control
same,"% control (HCVpp entry), glycine scanning","0.3 uM of peptide, two values per peptide",33 % control and 25 % control
same,"% control (HCVpp entry), glycine scanning","10 uM of peptide, two values per peptide",33 % control and 29 % control
same,"% control (HCVpp entry), glycine scanning","30 uM of peptide, two values per peptide",18 % control and 29 % control
same,% of control at ~30 uM,,22%
I-K-W-E-Y-V-L-L-L-F-L-L [SEQ ID NO: 107],HCVpp % inh,,88%
K-I-K-W-E-Y-V-L-L-L-F-L-L [SEQ ID NO: 101],"% control (HCVpp entry), lysine scanning",[8],83 % control and 107 % control and 77 % control and 104 % control and 119 % control and 101 % control
same,"% control (HCVpp entry), lysine scanning",[1],96 % control and 103 % control
same,"% control (HCVpp entry), lysine scanning",[2],65 % control and 90 % control
same,"% control (HCVpp entry), lysine scanning",[3],52 % control and 77 % control
same,"% control (HCVpp entry), lysine scanning",[4],54 % control and 57 % control
same,"% control (HCVpp entry), lysine scanning",[5],37 % control and 28 % control
same,"% control (HCVpp entry), lysine scanning",[6],26 % control and 25 % control
same,"% control (HCVpp entry), lysine scanning",[7],26 % control and 29 % control
same,% of control at ~30 uM,,4%
"K-W-E-Y-V-L-L-L-F-L-L (KWEYVLLLFLL; HCV peptide) [SEQ ID NO: 108, N-terminal truncation]",HCVpp % inh,,78%
